{"source": "patent US6693126B2", "about": "“Dihydroxyphenyl derivatives for hepatoprotection and treatment of liver diseases” (Choongwae Pharm. Co., Ltd., priority 2000, dated 2004)", "key": {"[1]": {"system": "Fulminant Liver Injuries caused by D-galactosamine/lipopolysaccharide in Mice", "assay": "Inhibitory effect against fulminant liver injuries caused by D-galactosamine/lipopolysaccharide in mice (survival)", "format": "in vivo, Mice (ICR, male)", "details": "D-galactosamine 800 mg/kg + lipopolysaccharide 10 μg/kg i.p., dose 50 mg/kg oral once, observed 24 hours", "source_text": "Further, the D-galactosamine/lipopolysaccharide model(see, Chris Galanos et al., Proc. Natl. Acad. Sci. USA, 76, 11, 5939-5943, 1979; Koji Hase et al., Biol. Pharm. Bull., 20, 4, 381-385, 1997; Junichi Nagakawa et al., The Journal of Pharmacology and Experimental Therapeutics, 264, 1, 1992; Nolan J. D., Hepatology, 1, 458-465, 1981; Wendel A., Methods Enzymol., 186, 675-680, 1990) which is also used in the present invention for the identification of hepatoprotective effect is based on the phenomena that liver injuries are caused by immune responses in mouse. It has been reported that such kind of liver injuries are caused not by direct tissue lesions due to the chemicals but by secretion of tumor necrosis factor(TNF)-α, reactive oxygen, etc.(see, Hishinuma I. et al., Hepatology, 12, 1187-1191, 1990, Hase K. et al., Phytother. Res., 10, 387-392, 1996). Here, D-galactosamine supresses protein biosynthesis and as well highly increases the sensitivity of the liver cells for lipopolysaccharide by reducing uridine nucleotide.\nThe hepatoprotective effect of the compound of the present invention was identified according to a known procedure(see, Koji Hase et al., Biol. Pharm. Bull., 20, 4, 381-385, 1997), and the protocol may be described in brief as follows.\n(§1) Mice(ICR, male, 27˜35 g) as the test animal were allowed in a condition of temperature 22±1° C. and relative humidity 60±5%. Feed and water were provided with no restriction while light and darkness were changed at an interval of 12 hours.\nThe compound of the present invention was suspended in a solvent corn oil, and this suspension was administered in a dose of 10 ml/kg. Each group included 10 test animals, and the test compound was orally administered once per animal. After 1 hour from the administration of the test compound, D-galactosamine and lipopolysaccharide each of which dissolved in physiological saline were intraperitoneally injected at the same time in doses of 800 mg/kg and 10 μg/kg, respectively. As the control compounds, SY-640[N-methyl-N-(3,4-methylenedioxyphenacyl)acetamide; EP0350251], silymarin and DDB were selected.\nThe statistical significance for the test result of each group was examined based on Student's t-test, and the result was recognized as having a statistical significance when its P value is less than 5%."}, "[2]": {"system": "Liver Injuries caused by Carbon Tetrachloride in Rats", "assay": "Inhibitory effect against liver injuries caused by carbon tetrachloride in rats", "format": "in vivo, Rats (SD, male)", "details": "CCl4 i.p., serum 24 h", "source_text": "(§2) The carbon tetrachloride model(see, Philippe letteron et al., Biochemical Pharmacology, 39, 12, 2027-2034, 1990; Tips, 10, 1989; Kyoichi Kagawa et al., Japan J. Pharmacol., 42, 19-26, 1986; K. T. Liu and P. Lesca, Chem. Biol. Interactions, 41, 39-47, 1982; Richard O. et al., J. Biological Chemistry, 236, 2, 1961) is used most generally. This model has been established based on the internal phenomena that carbon tetrachloride is converted by cytochrome P-450 to a toxic free radical trichloromethyl(CCl3.), this radical is strongly bound to a thiol group of membrane protein on microsome of liver to form a lipid radical, which is then converted to a peroxy radical in the presence of oxygen to facilitate the peroxidation reaction of membrane lipid. That is, carbon tetrachloride suppresses protein biosynthesis in the liver, induces the increase of ALT and AST values in blood, and further causes histologically the centrilobular necrosis of the liver.\n(§3) The degree of liver damage in the experimental animals was determined by measuring ALT and AST values in blood(see, Biol. Pharm. Bull., 20, 4, 381-385, 1997; Toxicology and Applied Pharmacology, 95, 1-11, 1988), and the hepatoprotective activity was calculated based on the following formula(see, Planta Medica, 55, 127-132, 1989). At this time, the hepatoprotective activity can also be calculated based on the same formula by replacing ALT value with AST value. [formula]\n(§4) The hepatoprotective effect of the compound of the present invention was identified according to a known procedure(see, Philippe letteron et al., Biochemical Pharmacology, 39, 12, 2027-2034, 1990), and the protocol may be described in brief as follows.\n(§5) Rats(SD, male, 180˜200 g) and mice(ICR, male, 27-35 g) used in the test were allowed in a condition of temperature 22±1° C. and relative humidity 60±5%. Feed and water were provided with no restriction while light and darkness were changed at an interval of 12 hours.\n(§6) […] […] Each group included 8 test animals, and the test compound was orally administered once per animal. After 30 minutes(rat) or 1 hour(mouse) from the administration of the test compound, 10% carbon tetrachloride in corn oil solution was intraperitoneally injected in doses of 2 ml/kg in rats and 0.15 ml/kg in mice. As the control compounds, silymarin and DDB were selected.\n(§7) The test animals were provided with no feed and sufficient water for 24 hours from the administration of carbon tetrachloride. […] This blood was centrifuged to obtain sera. ALT and AST values in the sera were measured using blood chemistry analyzer(Vitalab, Selectra II, Merck). The statistical significance for the test result of each group was examined based on Student's t-test, and the result was recognized as having a statistical significance when its P value is less than 5%."}, "[3]": {"system": "Liver Injuries caused by Carbon Tetrachloride in Mice", "assay": "Inhibitory effect against liver injuries caused by carbon tetrachloride in mice", "format": "in vivo, mice (ICR, male)", "details": "CCl4 i.p., serum 24 h", "source_text": "as §2, §3, §4, §5, §6, §7"}, "[4]": {"system": "Liver Injuries caused by Thioacetamide in Mice", "assay": "Inhibitory effect against liver injuries caused by thioacetamide in mice", "format": "in vivo, Mice (ICR, male)", "details": "thioacetamide i.p., dose 50 mg/kg p.o. once, serum 24 h", "source_text": "The hepatoprotective effect of the compound of formula (1) was also identified by thioacetamide model(see, Masuda Yasusuke and Nakayama Nobue, Biochemical Pharmacology, 31, 17, 2713-2725, 1982; Liu Jie et al., Acta Pharmacologica Sinica, 16, 2, 97-102, 1995; Story D. L. et al., J. Tox. Environ. Health, 11, 483-501, 1983; Gomez-Lechon M. J. et al., Xenobiotica, 18, 6, 725-735, 1988) which is frequently used as an experimental model for liver injuries. This model has been established based on the phenomena that thioacetamide activated by P-450 S-oxidation inordinately increases the influx of calcium ion(Ca^++) into the liver cells, which in turn activates calcium ion-dependent phospholipase, protease and endonuclease, changes the cell frame through the calcium ion, exhausts ATP, and consequently destroys the liver cells. Thioacetamide also damages ureogenesis pathway in liver, and the metabolite of thioacetamide inhibits the transfer of RNA and makes the liver cell membranes unstable. A series of these activities results in the destruction of the liver cells, which in turn causes the increase of ALT and AST values in blood and also causes histologically the centrilobular necrosis.\nas §3\nThe hepatoprotective effect of the compound of the present invention was identified according to a known procedure(see, Landon, E. J. et al., Biochemical Pharmacology, 35, 4, 697-705, 1986), and the protocol may be described in brief as follows.\nas §1\nThe compound of the present invention was suspended in a solvent corn oil, and this suspension was administered in a dose of 10 ml/kg. Each group included 8 test animals, and the test compound was orally administered once per animal. After 1 hour from the administration of the test compound, thioacetamide solution(concentration: 90 mg/ml) in physiological saline was intraperitoneally injected in a dose of 1 ml/kg. As the control compounds, silymarin and DDB were selected.\nas §7, with “thioacetamide.” for “carbon tetrachloride.”"}}, "data": [{"smiles": "CC(=O)N(C)CC(=O)c1ccc2c(c1)OCO2", "note": "[SY-640, N-methyl-N-(3,4-methylenedioxyphenacyl)acetamide, reference compound]", "values": [{"measurement": "Survival Rate (%)", "setting": "[1]", "result": 90, "unit": "%"}]}, {"smiles": "C(=N\\OCc1ccccn1)/c1ccc2c(c1)OCO2", "note": "[Compound 9, 1-[(2-pyridyl)methoxy]-1-aza-2-benzo[3,4-d]1,3-dioxolan-5-ylethene]", "values": [{"measurement": "Inhibitory Effect against Liver Injuries (%) ALT", "setting": "[2]; dose 1.9 mg/kg p.o. once", "result": 61, "unit": "%"}, {"measurement": "Inhibitory Effect against Liver Injuries (%) ALT", "setting": "[2]; dose 5.6 mg/kg p.o. once", "result": 60, "unit": "%"}, {"measurement": "Inhibitory Effect against Liver Injuries (%) ALT", "setting": "[2]; dose 16.7 mg/kg p.o. once", "result": 56, "unit": "%"}, {"measurement": "Inhibitory Effect against Liver Injuries (%) ALT", "setting": "[2]; dose 50 mg/kg p.o. once", "result": 75, "unit": "%"}, {"measurement": "Inhibitory Effect against Liver Injuries (%) ALT", "setting": "[3]; dose 1.9 mg/kg p.o. once", "result": 64, "unit": "%"}, {"measurement": "Inhibitory Effect against Liver Injuries (%) ALT", "setting": "[3]; dose 5.6 mg/kg p.o. once", "result": 64, "unit": "%"}, {"measurement": "Inhibitory Effect against Liver Injuries (%) ALT", "setting": "[3]; dose 16.7 mg/kg p.o. once", "result": 87, "unit": "%"}, {"measurement": "Inhibitory Effect against Liver Injuries (%) ALT", "setting": "[3]; dose 50 mg/kg p.o. once", "result": 98, "unit": "%"}, {"measurement": "Inhibitory Effect against Liver Injuries (%) ALT", "setting": "[4]", "result": 29, "unit": "%"}, {"measurement": "Survival Rate (%)", "setting": "[1]", "result": 90, "unit": "%"}]}]}
